Common to all, as to format: cell-based
Test [1] concerns Bone marrow-derived macrophages (BMM) from Rubicon−/− mice. Briefly: IL-10 production by Rubicon−/− bone marrow-derived macrophages co-cultured with apoptotic thymocytes (ELISA). The note with it: 60 μM; Rubicon-deficient (LAP-deficient) BMM, apoptotic thymocytes 10:1, 18 hours co-culture, supernatant ELISA; versus control treatment (FIG. 1C). The protocol: Bone marrow-derived macrophages (BMM) were generated as previously described from Rubicon−/− mice and wild-type littermates. Macrophages were co-cultured with UV-irradiated apoptotic thymocytes (at a ratio of 10 apoptotic cells:1 macrophage) in the presence or absence of PPARγ agonists Rosiglitazone (ROS, 20 or 60 μM) or Tesaglitazar (TES, 6 or 20 μM). NT indicates no treatment. After 18 hours of co-culture, supernatants were collected and analyzed for IL-10 production via ELISA (FIG. 1A). […] Thus, PPAR agonists can be effective at restoring the LAP phenotype in LAP-deficient cells.
Bone marrow-derived macrophages (BMM) were generated as previously described from Rubicon−/− mice and wild-type littermates. […] NT indicates no treatment. After 18 hours of co-culture, supernatants were collected and analyzed for IL-10 production via ELISA FIG. 1C). […] Thus, LXR agonists can be effective at restoring the LAP phenotype in LAP-deficient cells.
Bone marrow-derived macrophages (BMDMs) were generated from bone marrow progenitors obtained from littermates. Freshly prepared bone marrow cells were cultured in DMEM medium supplemented with 10% heat-inactivated FCS, 2 mM L-glutamine, 10 mM HEPES buffer, 50 μg/ml penicillin, and non-essential amino acids in the presence of 20 ng/ml rmM-CSF (Peprotech) for 6 days. […]

The test system of test [2] is Bone marrow-derived macrophages (BMM) from LysM-Cre+ ATG7f/f mice. Description: IL-10 production by LysM-Cre+ ATG7f/f bone marrow-derived macrophages co-cultured with apoptotic thymocytes (ELISA). The note with it: 20 μM; LysM-Cre+ ATG7f/f (LAP-deficient) BMM, apoptotic thymocytes 10:1, 18 hours co-culture, supernatant ELISA; versus control treatment (FIG. 1B). The protocol:
Bone marrow-derived macrophages (BMM) were generated as previously described from LysM-Cre− ATG7f/f and LysM-Cre+ ATG7f/f mice. Macrophages were co-cultured with UV-irradiated apoptotic thymocytes (at a ratio of 10 apoptotic cells:1 macrophage) in the presence or absence of PPARβ/δ agonist GW0742 (GW, 20 μM). NT indicates no treatment. After 18 hours of co-culture, supernatants were collected and analyzed for IL-10 production via ELISA (FIG. 1B). […] Thus, PPAR agonists can be effective at restoring the LAP phenotype in LAP-deficient cells.
Bone marrow-derived macrophages (BMDMs) were generated from bone marrow progenitors obtained from littermates. Freshly prepared bone marrow cells were cultured in DMEM medium supplemented with 10% heat-inactivated FCS, 2 mM L-glutamine, 10 mM HEPES buffer, 50 μg/ml penicillin, and non-essential amino acids in the presence of 20 ng/ml rmM-CSF (Peprotech) for 6 days. Nonadherent cells were removed on day 6, and adherent macrophages were detached from plates and re-plated for experimental use.
Apoptosis was induced in wild-type C57Bl/6 thymocytes by UV irradiation (20 J/m^2). Thymocytes were washed twice with PBS prior to experimental use.

In test [3] the test system is bone marrow derived-macrophages from Rbcn+/+ and Rbcn−/− mice. Description: Cytokine production by Rbcn+/+ and Rbcn−/− bone marrow derived-macrophages stimulated with apoptotic thymocytes (Luminex). Conditions: apoptotic thymocytes (1:10), 18 hours, supernatants. The protocol:
10^6 bone marrow derived-macrophages from Rbcn+/+ and Rbcn−/− mice were stimulated with apoptotic thymocytes (1:10) in vitro for 18 hours, in the presence of GW501516 at different concentrations (+6 μM, ++20 μM, +++60 μM). Collected supernatants were assayed for cytokine production using Luminex technology.
10^6 bone marrow derived-macrophages from Rbcn+/+ and Rbcn−/− mice were stimulated with apoptotic thymocytes (1:10) in vitro for 18 hours, in the presence of GW501516 at different concentrations (++20 μM, +++60 μM). Collected supernatants were assayed for cytokine production using Luminex technology.
Supernatants were collected from macrophages fed with apoptotic thymocytes for 24 hours. Cytokines released into supernatant were analyzed by Luminex technologies (Millipore). Serum was collected from animals was analyzed by Luminex technologies (Millipore).

Take `CC(C)CC[C@@H](O)[C@@H](C)[C@H]1CC[C@H]2[C@@H]3CC=C4C[C@@H](O)CC[C@]4(C)[C@H]3CC[C@]12C` [22(R)-hydroxycholesterol]: the IL-10 production result in test [1] is given as “increased IL-10 production”.
Regarding `Cc1cc(SCc2sc(-c3ccc(C(F)(F)F)c(F)c3)nc2C)ccc1OCC(=O)O` [GW0742], the IL-10 production result in test [2] is given as “increased IL-10 production”.
For the molecule `Cc1cc(SCc2sc(-c3ccc(C(F)(F)F)cc3)nc2C)ccc1OCC(=O)O` [GW501516], in test [3] (6, 20, 60 μM, Luminex (FIG. 7)), the “production of inflammatory cytokines in response to AT in vitro” value is recorded as “reduces production of inflammatory cytokines”. The “IL-10 production in response to apoptotic cells in LAP-deficient macrophages” value in test [3] (20, 60 μM, Luminex (FIG. 8)) is recorded as “restores IL-10 production”.
